According to ChEMBL document CHEMBL3745645, “Synthesis, in vitro antitumor activity, dihydrofolate reductase inhibition, DNA intercalation and structure-activity relationship studies of 1,3,5-triazine analogues” (Bioorg Med Chem Lett, 2016):
Calls of active or inactive are those of the source. No cut-off for these calls is given here.

Columns and labels:
Type in all cases: functional
[1] = Cytotoxicity against human Caki1 cells at 10 uM after 48 hrs by SRB assay; conditions: CAKI-1, 48 h, read-out: GI
[2] = Cytotoxicity against human RXF393 cells at 10 uM after 48 hrs by SRB assay; conditions: RXF 393, 48 h, read-out: GI
SN12C = assay: Cytotoxicity against human SN12C cells at 10 uM after 48 hrs by SRB assay; conditions: read-out: GI
[3] = Cytotoxicity against human TK10 cells at 10 uM after 48 hrs by SRB assay; conditions: TK-10, 48 h, read-out: GI
[4] = Cytotoxicity against human UO31 cells at 10 uM after 48 hrs by SRB assay; conditions: UO-31, 48 h, read-out: GI
[5] = Cytotoxicity against human PC3 cells at 10 uM after 48 hrs by SRB assay; conditions: PC-3, 48 h, read-out: GI
[6] = Cytotoxicity against human DU145 cells at 10 uM after 48 hrs by SRB assay; conditions: DU-145, 48 h, read-out: GI
MCF7 = assay: Cytotoxicity against human MCF7 cells at 10 uM after 48 hrs by SRB assay; conditions: MCF7, 48 h, read-out: GI
MDA-MB-231 = assay: Cytotoxicity against human MDA-MB-231 cells at 10 uM after 48 hrs by SRB assay; conditions: MDA-MB-231, 48 h, read-out: GI
[7] = Cytotoxicity against human Hs 578T cells at 10 uM after 48 hrs by SRB assay; conditions: read-out: GI
[8] = Cytotoxicity against human BT549 cells at 10 uM after 48 hrs by SRB assay; conditions: BT-549, 48 h, read-out: GI
T47D = assay: Cytotoxicity against human T47D cells at 10 uM after 48 hrs by SRB assay; conditions: read-out: GI
MDA-MB-468 = assay: Cytotoxicity against human MDA-MB-468 cells at 10 uM after 48 hrs by SRB assay; conditions: MDA-MB-468, 48 h, read-out: GI
CCRF-CEM = assay: Cytotoxicity against human CCRF-CEM cells at 10 uM after 48 hrs by SRB assay; conditions: read-out: GI
[9] = Cytotoxicity against human HL-60(TB) cells at 10 uM after 48 hrs by SRB assay; conditions: HL-60, 48 h, read-out: GI
K562 = assay: Cytotoxicity against human K562 cells at 10 uM after 48 hrs by SRB assay; conditions: K562, 48 h, read-out: GI
[10] = Cytotoxicity against human MOLT4 cells at 10 uM after 48 hrs by SRB assay; conditions: MOLT-4, 48 h, read-out: GI
[11] = Cytotoxicity against human RPMI8226 cells at 10 uM after 48 hrs by SRB assay; conditions: RPMI-8226, 48 h, read-out: GI
SR = assay: Cytotoxicity against human SR cells at 10 uM after 48 hrs by SRB assay; conditions: read-out: GI
A549 = assay: Cytotoxicity against human A549 cells at 10 uM after 48 hrs by SRB assay; conditions: A549, 48 h, read-out: GI
[12] = Cytotoxicity against human HOP62 cells at 10 uM after 48 hrs by SRB assay; conditions: HOP-62, 48 h, read-out: GI
[13] = Cytotoxicity against human HOP92 cells at 10 uM after 48 hrs by SRB assay; conditions: HOP-92, 48 h, read-out: GI
NCI-H226 = assay: Cytotoxicity against human NCI-H226 cells at 10 uM after 48 hrs by SRB assay; conditions: NCI-H226, 48 h, read-out: GI
NCI-H460 = assay: Cytotoxicity against human NCI-H460 cells at 10 uM after 48 hrs by SRB assay; conditions: NCI-H460, 48 h, read-out: GI
NCI-H522 = assay: Cytotoxicity against human NCI-H522 cells at 10 uM after 48 hrs by SRB assay
COLO 205 = assay: Cytotoxicity against human COLO205 cells at 10 uM after 48 hrs by SRB assay
[14] = Cytotoxicity against human HCC2998 cells at 10 uM after 48 hrs by SRB assay; conditions: HCC 2998, 48 h, read-out: GI
[15] = Cytotoxicity against human HCT116 cells at 10 uM after 48 hrs by SRB assay; conditions: HCT-116, 48 h, read-out: GI
[16] = Cytotoxicity against human HCT15 cells at 10 uM after 48 hrs by SRB assay; conditions: HCT-15, 48 h, read-out: GI
HT-29 = assay: Cytotoxicity against human HT-29 cells at 10 uM after 48 hrs by SRB assay; conditions: HT-29, 48 h, read-out: GI
KM12 = assay: Cytotoxicity against human KM12 cells at 10 uM after 48 hrs by SRB assay; conditions: KM12, 48 h, read-out: GI
[17] = Cytotoxicity against human SW620 cells at 10 uM after 48 hrs by SRB assay; conditions: SW-620, 48 h, read-out: GI
[18] = Cytotoxicity against human SF268 cells at 10 uM after 48 hrs by SRB assay; conditions: SF-268, 48 h, read-out: GI
[19] = Cytotoxicity against human SF295 cells at 10 uM after 48 hrs by SRB assay; conditions: SF-295, 48 h, read-out: GI
[20] = Cytotoxicity against human SF539 cells at 10 uM after 48 hrs by SRB assay; conditions: SF-539, 48 h, read-out: GI
[21] = Cytotoxicity against human SNB19 cells at 10 uM after 48 hrs by SRB assay; conditions: SNB-19, 48 h, read-out: GI
[22] = Cytotoxicity against human SNB75 cells at 10 uM after 48 hrs by SRB assay; conditions: SNB-75, 48 h, read-out: GI
[23] = Cytotoxicity against human LOXIMVI cells at 10 uM after 48 hrs by SRB assay; conditions: LOX IMVI, read-out: GI
Malme-3M = assay: Cytotoxicity against human MALME-3M cells at 10 uM after 48 hrs by SRB assay
M14 = assay: Cytotoxicity against human M14 cells at 10 uM after 48 hrs by SRB assay
MDA-MB-435 = assay: Cytotoxicity against human MDA-MB-435 cells at 10 uM after 48 hrs by SRB assay; conditions: MDA-MB-435, 48 h, read-out: GI
SK-MEL-2 = assay: Cytotoxicity against human SK-MEL-2 cells at 10 uM after 48 hrs by SRB assay
SK-MEL-28 = assay: Cytotoxicity against human SK-MEL-28 cells at 10 uM after 48 hrs by SRB assay
SK-MEL-5 = assay: Cytotoxicity against human SK-MEL-5 cells at 10 uM after 48 hrs by SRB assay; conditions: SK-MEL-5, 48 h, read-out: GI
[24] = Cytotoxicity against human UACC257 cells at 10 uM after 48 hrs by SRB assay; conditions: UACC-257, 48 h, read-out: GI
[25] = Cytotoxicity against human UACC62 cells at 10 uM after 48 hrs by SRB assay; conditions: UACC-62, 48 h, read-out: GI
[26] = Cytotoxicity against human IGROV1 cells at 10 uM after 48 hrs by SRB assay; conditions: IGROV-1, 48 h, read-out: GI
[27] = Cytotoxicity against human OVCAR3 cells at 10 uM after 48 hrs by SRB assay; conditions: OVCAR-3, 48 h, read-out: GI
[28] = Cytotoxicity against human OVCAR4 cells at 10 uM after 48 hrs by SRB assay; conditions: OVCAR-4, 48 h, read-out: GI
[29] = Cytotoxicity against human OVCAR5 cells at 10 uM after 48 hrs by SRB assay; conditions: OVCAR-5, 48 h, read-out: GI
[30] = Cytotoxicity against human OVCAR8 cells at 10 uM after 48 hrs by SRB assay; conditions: OVCAR-8, 48 h, read-out: GI
[31] = Cytotoxicity against human NCI-ADR-RES cells at 10 uM after 48 hrs by SRB assay; conditions: read-out: GI
[32] = Cytotoxicity against human SKOV3 cells at 10 uM after 48 hrs by SRB assay; conditions: SK-OV-3, 48 h, read-out: GI
786-0 = assay: Cytotoxicity against human 786-0 cells at 10 uM after 48 hrs by SRB assay; conditions: 786-0, 48 h, read-out: GI
A498 = assay: Cytotoxicity against human A498 cells at 10 uM after 48 hrs by SRB assay; conditions: A498, 48 h, read-out: GI
ACHN = assay: Cytotoxicity against human ACHN cells at 10 uM after 48 hrs by SRB assay; conditions: read-out: GI

With `Cc1nc2cc(Nc3nc(Cl)nc(Nc4ccc(F)cc4)n3)ccc2n1Cc1ccccc1` the inhibition of growth at 10 µM [1] was 12.3%, the inhibition of growth at 10 µM [2] was 22.9% and the inhibition of growth at 10 µM (SN12C) was 22.1%. The inhibition of growth at 10 µM [3] was 41.5%, the inhibition of growth at 10 µM [4] was 19.3% and the inhibition of growth at 10 µM [5] was 21.2%. For the same compound, the inhibition of growth at 10 µM [6] was 36%, the inhibition of growth at 10 µM (MCF7) was 38.5% and the inhibition of growth at 10 µM (MDA-MB-231) was 17.9%. For the same compound, the inhibition of growth at 10 µM [7] was 20.5%, the inhibition of growth at 10 µM [8] was 9.39% and the inhibition of growth at 10 µM (T47D) was 43%. The inhibition of growth at 10 µM (MDA-MB-468) was 23.8%, the inhibition of growth at 10 µM (CCRF-CEM) was 21.5% and the inhibition of growth at 10 µM [9] was 46.8%. The inhibition of growth at 10 µM (K562) was 14.8%, the inhibition of growth at 10 µM [10] was 9.41% and the inhibition of growth at 10 µM [11] was 84.7%. The inhibition of growth at 10 µM (SR) was 42.5%, the inhibition of growth at 10 µM (A549) was 13.3% and the inhibition of growth at 10 µM [12] was 11.6%. The inhibition of growth at 10 µM [13] was 49.3%, the inhibition of growth at 10 µM (NCI-H226) was 19.6% and the inhibition of growth at 10 µM (NCI-H460) was 12%. The “growth inhibition (GI)” value (NCI-H522) was “Active”, the “growth inhibition (GI)” value (COLO 205) was “inactive” and the inhibition of growth at 10 µM [14] was 5.54%. For the same compound, the inhibition of growth at 10 µM [15] was 96.1%, the inhibition of growth at 10 µM [16] was 27.9% and the inhibition of growth at 10 µM (HT-29) was 5.46%. The inhibition of growth at 10 µM (KM12) was 30.8%, the inhibition of growth at 10 µM [17] was 15.2% and the inhibition of growth at 10 µM [18] was 8.93%. The inhibition of growth at 10 µM [19] was 3.61%, the inhibition of growth at 10 µM [20] was 29.8% and the inhibition of growth at 10 µM [21] was 7.64%. For the same compound, the inhibition of growth at 10 µM [22] was 10%, the inhibition of growth at 10 µM [23] was 56.7% and the “growth inhibition (GI)” value (Malme-3M) was “inactive”. For the same compound, the “growth inhibition (GI)” value (M14) was “inactive”, the inhibition of growth at 10 µM (MDA-MB-435) was 4.44% and the “growth inhibition (GI)” value (SK-MEL-2) was “inactive”. For the same compound, the “growth inhibition (GI)” value (SK-MEL-28) was “inactive”, the inhibition of growth at 10 µM (SK-MEL-5) was 7.59% and the inhibition of growth at 10 µM [24] was 10.3%. For the same compound, the inhibition of growth at 10 µM [25] was 17.6%, the inhibition of growth at 10 µM [26] was 17% and the inhibition of growth at 10 µM [27] was 5.75%. It also gave an inhibition of growth at 10 µM [28] of 14.2%, an inhibition of growth at 10 µM [29] of 3.73% and an inhibition of growth at 10 µM [30] of 18.5%. It also gave an inhibition of growth at 10 µM [31] of 4.36%, an inhibition of growth at 10 µM [32] of 4.12% and an inhibition of growth at 10 µM (786-0) of 67%. The inhibition of growth at 10 µM (A498) was 30.6% and the inhibition of growth at 10 µM (ACHN) was 63.8%.
